This passage reports GI50 and TGI results from PubChem BioAssay (NCI).

Molecules are shown by their SMILES.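 Grown in 96-well plates, cells were treated for 48 hours with each compound at five concentrations. Insufficient inhibition: endpoint recorded as highest concentration tested. GI50 is the concentration that inhibits growth by half. TGI is the concentration that stops growth completely.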 Where a SMILES comes first, the peptide text is derived from it. [ ]: non-standard residue; d: D form. The star is where a group is joined. NMeAc5c = CNC1(C(=O)O)CCCC1; Boc = CC(C)(C)OC(=O)*; OBn = c1ccc(CO*)cc1

What all share (assay): inhibition of tumour cell growth, NCI panel, 48 h
Test [1] relates to SNB-19 CNS.
Test [2] concerns LOX IMVI melanoma.
The subject of test [3] is HCT-116 colon.
Test [4] has as its system SK-MEL-5 melanoma.
In test [5] the test system is MOLT-4 leukemia.
The subject of test [6] is NCI-H460 lung.
The test system of test [7] is SF-539 CNS.
In test [8] the test system is RXF 393 renal.
Test [9] deals with MALME-3M melanoma.
In test [10] the test system is HS 578T breast.
Test [11] relates to OVCAR-4 ovarian.
Test [12] has as its system A498 renal.

With `CC1CCC(n2c3cnccc3c3cnc(Nc4ccc5c(n4)CCN(C(=O)CO)C5)nc32)CC1` (stereo not drawn), the GI50 in test [1] was 0.845 µM; in test [2] it was 0.496 µM; in [3], 0.462 µM; in test [4] it was 0.792 µM; in [5] it was 0.211 µM; in test [6] it was 0.422 µM. Besides, the TGI in test [1], in [2], in test [3], in [4], in test [5] and in [6] was over 100 µM throughout.
In the case of `CC(C)CCS(=O)(=O)OCCCCOS(=O)(=O)CCC(C)C`, the TGI in test [1], in test [2], in test [3], in test [5], in test [7] and in [8] was over 100 µM in each case. The TGI in [6] and in test [9] was over 100 µM each time.
Turning to `Cc1ccc(-c2n[nH]c(=O)n2N2C(=O)c3ccccc3C2=O)cc1`, the TGI in test [1], in test [2], in test [3], in test [4], in test [5] and in test [10] was over 100 µM in each case. In addition, the TGI in test [7], in test [8], in test [6] and in test [9] was over 100 µM each time.
Consider `S=C1Nc2ccccc2SC1c1ccccc1` (stereo not drawn), for which the TGI in test [1], in [2], in test [3], in [4], in test [11] and in test [5] was over 100 µM throughout. Besides, the TGI in [10] was 83.2 µM; in [8], 92.5 µM; in test [6], over 100 µM; in [9], over 100 µM.
Take `CN(C(=O)C(Cc1ccccc1)NC(=O)OC(C)(C)C)C1(C(=O)NC(Cc2ccccc2)C(=O)OCc2ccccc2)CCCC1` (stereo not drawn) (Boc-Phe-[NMeAc5c]-Phe-OBn; configuration not given here): the TGI in test [1] was over 100 µM; in [2], over 100 µM; in test [3], over 100 µM; in [4] it was over 100 µM; in [11] it was over 100 µM; in test [5] it was 84.2 µM. The TGI was over 100 µM in [10]; over 100 µM in [7]; over 100 µM in [8]; 59.8 µM in [6]; over 100 µM in test [9].
As for `CCCCC#C[I+]c1ccccc1`, the TGI in test [1] was determined as 30.9 µM; in [2], 26.9 µM; in [3], 30 µM; in test [4], 31.1 µM; in [11], 28.9 µM; in [5], 23.9 µM. Moreover, the TGI came to 48.2 µM in [12]; 38.8 µM in test [7]; 36.9 µM in test [8]; 26.9 µM in test [6]; 28.2 µM in test [9].
As for `COc1cc2c(c(OC)c1OC)C(=O)[C@@H]1[C@H]2N1C(N)=O`, the TGI in [1], in test [2], in test [3], in [4], in [5] and in test [10] was over 100 µM throughout. The TGI in test [7], in [8], in [6] and in test [9] was over 100 µM each time.
Consider `COc1cccc(C(=O)O[C@H]2[C@@H]3[C@]4(OC(C)=O)CO[C@@H]4C[C@H](O)[C@@]3(C)C(=O)[C@H](OC(C)=O)C3=C(C)[C@@H](OC(=O)[C@H](O)[C@@H](NC(=O)OC(C)(C)C)c4ccco4)C[C@]2(O)C3(C)C)c1`, for which the TGI in test [1] was over 30 µM; in test [2] it was over 15.6 µM; in test [3], 9.93 µM; in test [4], over 15.7 µM; in [11] it was over 37.5 µM; in test [5], 9.99 µM. In addition, the TGI in [10] is 3.4 µM; in [7], 0.33 µM; in [8], over 9.16 µM; in [6], over 37.5 µM; in test [9] it was over 37.5 µM.
Turning to `CCOC(=O)c1cn2c(n1)sc1cccc(C)c12`, the TGI in test [1], in test [2], in [3], in test [4], in test [10] and in test [7] was over 100 µM each time. Moreover, the TGI in test [8], in test [6] and in test [9] was over 100 µM each time.
Consider `Cc1cc(Cc2cc(C)c(N)cc2N)c(N)cc1N`, for which the TGI in test [1], in test [2], in [3], in [4], in [11] and in [5] was over 100 µM each time. The TGI in test [12], in test [7], in test [8] and in test [6] was over 100 µM throughout.
As for `COc1ccc(COCCOCc2nc(C#N)c(N)o2)cc1`, the TGI in test [2], in test [3], in test [4], in test [11], in test [5] and in test [12] was over 100 µM in each case. Further, the TGI in test [7], in [8] and in test [6] was over 100 µM each time.
For the molecule `Clc1ccccc1C(SCc1ccccc1)SCc1ccccc1`, the TGI in [1], in test [3], in test [4], in test [11], in test [5] and in [7] was over 100 µM each time. Moreover, the TGI in test [8], in test [6] and in test [9] was over 100 µM each time.
Regarding `Cc1c(O)c(O)cc[n+]1C1OC(CO)C(O)C1O` (stereo not drawn), the TGI in [1], in test [2], in test [3], in test [11], in test [12] and in test [8] was over 100 µM in each case. For the same molecule, the TGI in test [6] and in test [9] was over 100 µM in each case.
